{"source": "patent EP1538162B1", "about": "“Compositions for altering mucus secretion” (NORTH CAROLINA STATE UNIVERSITY, priority 1999, dated 2000)", "key": {"[1]": {"tested_on": "normal human bronchial epithelial (NHBE) cells", "test": "UTP-induced mucin secretion, air-liquid interface culture, mucus ELISA", "type": "cell-based", "conditions": "for mucin secretion in cells stimulated by secretagogues: general statement, Example 9: 15 min pre-incubation, UTP 0.1 mM 2 hours, 500 nM calphostin C, 10 µM Rp-8-Br-PET-cGMP, 50 µM LY83583", "method": "(§1) Cell Culture System: Expansion and cryopreservation. Primary normal human bronchial epithelial (NHBE) cells (Clonetics, San Diego, CA) were seeded into vented T75 tissue culture flasks (500 cells/cm^2) in bronchial epithelial basal medium (BEBM; Clonetics, San Diego, CA) containing 25 ng/ml human recombinant epidermal growth factor (EGF; Intergen, Purchase, NY), 65 ng/ml bovine pituitary extract (prepared by the methods of Bertolero et al. Exp Cell Res 155:64, 1984), 5 x 10^-8M all-trans retinoic acid, 1.5µg/ml bovine serum albumin (Intergen, Purchase, NY), 20 IU/ml nystatin (Gibco, Grand Island, NY), 0.5µg/ml hydrocortisone, 5µg/ml insulin, 10µg/ml transferrin, 0.5µg/ml epinephrine, 6.5ng/ml triiodothyronine, 50µg/ml gentamicin, and 50µg/ml amphotericin-B (Clonetics; San Diego, CA). Once confluent, cultures were dissociated with trypsin/EDTA and frozen as passage-2 according to the methods of Clonetics Corporation.\nAir-liquid interface culture of NHBE cells. Following the expansion, NHBE cells were cultured in air/liquid interface according to the methods of Gray and coworkers with minor modifications (Gray et al. Am J Respir Cell Mol Biol 14:104, 1996). The air-liquid interface culture was initiated by seeding NHBE cells (passage-2, 2x10^4 cells/cm^2) on Transwell-clear culture inserts (24.5 mm, 0.45 µm pore size; Costar, Cambridge, MA) that were thin coated with rat tail collagen, type I (Collaborative Research, Bedford, MA). Cells were cultured submerged to 70% confluency (5-7 days) in a 1:1 mixture of bronchial epithelial cell growth medium (Clonetics, San Diego, CA):Dulbecco's modified Eagles medium with high glucose (BEGM:DMEM-H), containing the same supplements as described above with the exception of EGF (0.5 ng/ml). When cultures were 70% confluent, the air-liquid interface was created by removing the apical medium, and the basal medium (BEGM:DMEM-H) was changed daily thereafter. Cells were then cultured for an additional 14 days in air-liquid interface, a total of 21 days in culture.\n(§2) Mucus ELISA: Mucus secreted from the airway epithelial cells in vitro after stimulation by activators was assessed using an ELISA (antibody capture method) (E. Harlow, D. Lane. \"Antibodies: A Laboratory Manual.\" New York: Cold Spring Harbor Laboratory Press, 1988), wherein the collected mucus is bound directly to the ELISA plate. Mucus was detected using an antibody raised against monkey airway mucus (Lin et al. Am J Respir Cell Mol Biol 1:41, 1989). […]\nNHBE cells were pre-incubated with the indicated inhibitor for 15 min, then stimulated with UTP (0.1mM) for 2 hours. Secreted mucin in the apical medium was collected and assayed by ELISA."}, "MARCKS": {"tested_on": "MARCKS", "test": "Phosphorylation state of MARCKS in airway epithelial cells", "type": "cell-based, human", "method": "To detect MARCKS protein in these cells, cells were labeled with ^3H-myristic acid (as MARCKS is myristoylated) for 16 hours in media. Cells were lysed, and MARCKS protein was immunoprecipitated according to the method of Spizz & Blackshear (J Biol Chem 271:553, 1996) using monoclonal antibody 2F12 (a gift from the Blackshear laboratory).\n(§3) Phosphorylation of MARCKS by PMA was attenuated by Calphostin C (500 nM). NHBE cells also contained substantial amounts of cGMP-dependent protein kinase type 1α (PKG-1α) activity, which was localized to the cytosolic fraction. […] In addition, the phosphorylation of MARCKS induced by PMA was reversed by incubation with 8-Br-cGMP (10 µM)."}, "[2]": {"tested_on": "normal human bronchial epithelial (NHBE) cells", "test": "Mucin secretion stimulated by PMA + 8-Br-cGMP, air-liquid interface culture, mucus ELISA", "type": "cell-based", "conditions": "500nM, pre-incubated 15 min; PMA (100 nM) + 8-Br-cGMP (1µM) for 15 min", "method": "as §1, with “Corporation. […]” for “Corporation.”\nas §2"}, "[3]": {"target": "T1, cGMP-dependent protein kinase type 1α (PKG-1α) (Homo sapiens, UniProt Q13976)", "T1 construct": "NHBE cells also contained substantial amounts of cGMP-dependent protein kinase type 1α (PKG-1α) activity; endogenous in cells; host or cells: primary normal human bronchial epithelial (NHBE) cells, Clonetics", "T1 sequence (Q13976 1-671)": "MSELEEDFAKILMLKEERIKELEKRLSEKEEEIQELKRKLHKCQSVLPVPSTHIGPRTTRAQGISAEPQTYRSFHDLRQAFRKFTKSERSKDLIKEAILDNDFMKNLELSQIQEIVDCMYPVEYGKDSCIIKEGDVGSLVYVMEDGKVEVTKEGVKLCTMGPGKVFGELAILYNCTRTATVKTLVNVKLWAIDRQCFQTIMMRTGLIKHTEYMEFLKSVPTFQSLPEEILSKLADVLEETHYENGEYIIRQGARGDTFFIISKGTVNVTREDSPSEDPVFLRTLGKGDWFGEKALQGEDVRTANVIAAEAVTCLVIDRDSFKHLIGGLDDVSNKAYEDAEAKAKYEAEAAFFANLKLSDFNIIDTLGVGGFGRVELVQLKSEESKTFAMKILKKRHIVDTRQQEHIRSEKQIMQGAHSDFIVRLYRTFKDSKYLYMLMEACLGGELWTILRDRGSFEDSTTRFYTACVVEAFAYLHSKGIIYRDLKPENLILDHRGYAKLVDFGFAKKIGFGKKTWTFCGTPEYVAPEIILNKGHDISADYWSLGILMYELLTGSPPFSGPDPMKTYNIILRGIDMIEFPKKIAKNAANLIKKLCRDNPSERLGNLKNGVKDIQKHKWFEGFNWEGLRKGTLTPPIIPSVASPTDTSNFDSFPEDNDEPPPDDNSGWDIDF", "test": "PKG activity in NHBE cells", "type": "cell-based", "conditions": "100 µM", "method": "as §3"}}}
{"molecule": "calphostin C", "values": [{"measurement": "mucin secretion in cells stimulated by secretagogues", "setting": "[1]", "value": "inhibit mucin secretion"}, {"measurement": "phosphorylation of MARCKS by PMA", "setting": "MARCKS; 500 nM", "value": "attenuated"}]}
{"molecule": "C=C1[C@@H](O)[C@@H]2O[C@]3(CC[C@H](/C=C/[C@@H](C)[C@@H]4CC(C)=C[C@@]5(O[C@H](C[C@@](C)(O)C(=O)O)CC[C@H]5O)O4)O3)CC[C@H]2O[C@@H]1[C@@H](O)C[C@H](C)[C@H]1O[C@@]2(CCCCO2)CC[C@H]1C", "note": "[okadaic acid]", "values": [{"measurement": "mucin hypersecretion induced by PMA + 8-Br-cGMP", "setting": "[2]", "value": "blocks mucin hypersecretion"}, {"measurement": "mucin hypersecretion induced by UTP", "setting": "[1]; 500nM, pre-incubated 15 min, UTP (0.1 mM) for 2 hours", "value": "blocks mucin hypersecretion"}, {"measurement": "mucin secretion in cells stimulated by secretagogues", "setting": "[1]", "value": "inhibit mucin secretion"}, {"measurement": "reversal by 8-Br-cGMP of PMA-induced phosphorylation of MARCKS", "setting": "MARCKS; 500 nM", "value": "inhibited this effect"}]}
{"molecule": "dibutyryl cGMP", "values": [{"measurement": "constitutive PKG activity", "setting": "[3]", "value": "increased"}]}
{"molecule": "CCCCCCCCCCCCCC(=O)O[C@@H]1[C@@H](C)[C@@]2(O)[C@@H](C=C(CO)C[C@]3(O)C(=O)C(C)=C[C@@H]23)[C@@H]2C(C)(C)[C@]12OC(C)=O", "note": "[PMA, phorbol 12-myristate 13-acetate]", "values": [{"measurement": "phosphorylation of MARCKS", "setting": "MARCKS; PMA 100 nM, concentration of 4α-PMA not given", "value": "phosphorylated"}]}
{"molecule": "O=C1C(Nc2ccccc2)=CC(=O)c2ncccc21", "note": "[LY83585]", "values": [{"measurement": "mucin secretion in cells stimulated by secretagogues", "setting": "[1]", "value": "inhibit mucin secretion"}]}
{"molecule": "O=c1c2nc(Br)n(C3OC4COP(=O)(S)OC4C3O)c2nc2[nH]c(-c3ccccc3)cn12", "note": "(centres unmarked) [Rp-8-Br-PET-cGMP]", "values": [{"measurement": "mucin secretion in cells stimulated by secretagogues", "setting": "[1]", "value": "inhibit mucin secretion"}]}
{"molecule": "Nc1nc2c(nc(Br)n2[C@@H]2O[C@@H]3COP(=O)(O)O[C@H]3[C@H]2O)c(=O)[nH]1", "note": "[8-Br-cGMP, 8-bromo-cGMP]", "values": [{"measurement": "phosphorylation of MARCKS induced by PMA", "setting": "MARCKS; 10 µM", "value": "reversed"}]}
